# From PubChem BioAssay AID212 (DTP/NCI, 2004)
# “And” between values parts separate entries of the source, which are not always exact repeats. Equal entries are not always repeated. Records with an inconclusive call do not appear.
# Tested on: BDF1 mice, colon carcinoma 38 sc, T/C %
# Experiment: NCI In Vivo Anticancer Drug Screen. Data for tumor model Colon Carcinoma 38 (subcutaneous) in B6D2F1 (BDF1) mice
# Conditions: endpoint: median tumor weight (est.), higher = larger tumour
# Procedure, shortened: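 Compound antitumor activity was assessed in mice carrying transplantable tumors. Survival or tumor size was recorded, and each value is the treated-group measurement divided by that of the vehicle-treated control group.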
# [1] = dose: 100.0 mg/kg/injection, schedule: Q07DX002 (ip), vehicle: saline with Tween-80
# [2] = dose: 200.0 mg/kg/injection, schedule: Q07DX002 (ip), vehicle: saline with Tween-80
# [3] = dose: 400.0 mg/kg/injection, schedule: Q07DX002 (ip), vehicle: saline with Tween-80
# [4] = dose: 25.0 mg/kg/injection, schedule: Q07DX002 (ip), vehicle: saline with Tween-80
# [5] = dose: 50.0 mg/kg/injection, schedule: Q07DX002 (ip), vehicle: saline with Tween-80
# [6] = dose: 50.0 mg/kg/injection, schedule: Q07DX002 (ip), vehicle: saline
# [7] = dose: 100.0 mg/kg/injection, schedule: Q07DX002 (ip), vehicle: saline
# [8] = dose: 200.0 mg/kg/injection, schedule: Q07DX002 (ip), vehicle: saline
# [9] = dose: 400.0 mg/kg/injection, schedule: Q07DX002 (ip), vehicle: saline
smiles,measurement,setting,value
COC(=O)C1(F)C(=O)NC(=O)NC1OC (stereo not drawn),T/C,"dose: 100.0 mg/kg/injection, schedule: Q07DX002 (ip), vehicle: Klucel (hydroxypropylcellulose) (HPC)",90 % of control
same,T/C,[1],83 % of control
same,T/C,"dose: 200.0 mg/kg/injection, schedule: Q07DX002 (ip), vehicle: Klucel (hydroxypropylcellulose) (HPC)",72 % of control
same,T/C,[2],83 % of control
same,T/C,[3],55 % of control
same,T/C,"dose: 800.0 mg/kg/injection, schedule: Q07DX002 (ip), vehicle: saline with Tween-80",85 % of control
Cc1ccc2c(c1)n([O-])c1cc(Cl)ccc1[n+]2=O,T/C,[4],118 % of control
same,T/C,[5],102 % of control
same,T/C,[1],78 % of control
same,T/C,[2],76 % of control
same,T/C,[3],79 % of control
CC(=S)NC(O)C(=O)c1ccccc1 (stereo not drawn),T/C,[5],71 % of control and 82 % of control
same,T/C,[1],77 % of control and 99 % of control
same,T/C,[2],98 % of control and 103 % of control
same,T/C,[3],115 % of control
CN(CO)c1nc(N(C)CO)nc(N(C)CO)n1,T/C,"dose: 12.5 mg/kg/injection, schedule: Q07DX002 (ip), vehicle: saline",95 % of control
same,T/C,"dose: 12.5 mg/kg/injection, schedule: Q07DX003 (ip), vehicle: saline",208 % of control
same,T/C,"dose: 25.0 mg/kg/injection, schedule: Q07DX002 (ip), vehicle: saline",87 % of control
same,T/C,"dose: 25.0 mg/kg/injection, schedule: Q07DX003 (ip), vehicle: saline",165 % of control
same,T/C,[5],117 % of control
same,T/C,[6],66 % of control
same,T/C,"dose: 50.0 mg/kg/injection, schedule: Q07DX003 (ip), vehicle: saline",81 % of control
same,T/C,[1],105 % of control
same,T/C,[7],46 % of control
same,T/C,"dose: 100.0 mg/kg/injection, schedule: Q07DX003 (ip), vehicle: saline",46 % of control
same,T/C,[2],55 % of control
same,T/C,[8],21 % of control
same,T/C,"dose: 200.0 mg/kg/injection, schedule: Q07DX003 (ip), vehicle: saline",6 % of control
same,T/C,[9],4 % of control
O=C1CCC(=O)N1CO,T/C,[6],112 % of control and 98 % of control
same,T/C,[7],99 % of control and 100 % of control
same,T/C,[8],76 % of control and 91 % of control
same,T/C,[9],36 % of control and 58 % of control
O=C(Nc1ccccc1C(=O)O)c1cc([N+](=O)[O-])cc([N+](=O)[O-])c1,T/C,[4],110 % of control and 88 % of control
same,T/C,[5],78 % of control and 85 % of control
same,T/C,[1],69 % of control
same,T/C,[2],83 % of control and 86 % of control
COc1cc([C@@H]2c3cc4c(c(O)c3C[C@H]3COC(=O)[C@@H]32)OCO4)cc(OC)c1O,T/C,"dose: 0.5 mg/kg/injection, schedule: Q07DX002 (ip), vehicle: saline",78 % of control
same,T/C,"dose: 1.0 mg/kg/injection, schedule: Q07DX002 (ip), vehicle: saline",65 % of control
same,T/C,"dose: 2.0 mg/kg/injection, schedule: Q07DX002 (ip), vehicle: saline",81 % of control
same,T/C,"dose: 4.0 mg/kg/injection, schedule: Q07DX002 (ip), vehicle: saline",123 % of control
CCCCCC1c2cc(O)ccc2OC1N1CCOCC1 (stereo not drawn),T/C,"dose: 12.0 mg/kg/injection, schedule: Q07DX002 (ip), vehicle: saline with Tween-80",107 % of control
same,T/C,[4],161 % of control
same,T/C,[1],169 % of control
same,T/C,[2],55 % of control
same,T/C,[3],170 % of control
same,T/C,"dose: 450.0 mg/kg/injection, schedule: Q07DX002 (ip), vehicle: saline with Tween-80",120 % of control
same,T/C,"dose: 900.0 mg/kg/injection, schedule: Q07DX002 (ip), vehicle: saline with Tween-80",154 % of control
